Patent US20110152267A1, “Compositions and Methods for Treating Hyperproliferative Disorders” (Texas Tech University System, priority 2009, published 2011)

How the values were obtained:
Type in all cases: cell-based, human
[1] = test system: HT-29 colon cancer cell line; assay: DIMSCAN cytotoxicity dose-response with fenretinide, with or without D-threo-PPMP (Examples A, FIGS. 4, 10, 15, 21-23); details: +96 hrs
Procedure: (§1) Cytotoxicity Assay: Cytotoxicity in cell lines was determined using a fluorescence-based assay employing digital imaging microscopy (DIMSCAN)(after Fragala, et al, Mol Cancer Ther, 6:886-897, 2007). DIMSCAN quantitates viable cells which selectively accumulate fluorescein diacetate and is capable of measuring cytotoxicity over a 4-5 log dynamic range by quantifying total fluorescence per well (which is proportional to viable, clonogenic cells) after eliminating background fluorescence using digital thresholding and eosin Y quenching. Briefly, cell lines were seeded into 96-well plates in 100 µL of complete culture medium (10-20% serum) per well. Cells were incubated overnight in 2%, 5% or 20% oxygen (room air) prior to addition of drugs in […] volumes of complete medium to various final drug concentrations in replicates of 12 wells per concentration. In assays employing D-threo-PPMP, PPMP was employed at a fixed, minimally-toxic, final concentration of 10 μM in each well. Control wells received ethanol (final concentration=0.12%-0.20%) in complete medium equivalent to the maximum final ethanol concentration of drug-treated wells. Plates were incubated at various oxygen concentrations to simulate physiological hypoxia (i.e., 2% oxygen=typical solid tumor oxygen levels; 5%=bone marrow oxygen levels for leukemias; 20% room air=supraphysiological oxygen for comparison with typical laboratory culture conditions). Plates were assayed at 3-4 days after initiating drug exposure depending on the growth properties of each cell line, to allow for maximum cell death and outgrowth of surviving cells. To measure cytotoxicity, FDA (stock solution of 1 mg/ml in DMSO) was added, in 50 µL of complete medium per well, to a final concentration of 10 µg/ml. The plates were incubated for an additional 15-30 minutes at 37 C and then 30 µL of eosin Y (0.5% in normal saline) was added per well. Total fluorescence of each well was then measured using digital imaging microscopy.
(§2) FIGS. 1 to 26 illustrate the effect (Examples A1 through A26) of the claimed invention and were carried out using the procedures disclosed herein.

[2] = test system: GBM2 glioblastoma brain cancer cell line; assay: DIMSCAN cytotoxicity dose-response with fenretinide, with or without D-threo-PPMP (Examples A, FIGS. 3, 9, 14, 18-20); details: +96 hrs
Procedure: as §1, §2

[3] = test system: NCI-H-1792 lung adenocarcinoma cell line; assay: DIMSCAN cytotoxicity, fenretinide + L-threo-sphinganines 3:1 (Example B12); details: 96 h
Procedure: (§3) Cytotoxicity Assay—Once again, cytotoxicity is determined using the DIMSCAN assay system (R. Proffitt et al., Cytometry 24, 204-213 (1996); T. Frgala et al., Mol Cancer Ther. 6:886-97, 2007). The system employs digital imaging microscopy to quantify viable cells, which selectively accumulate fluorescein diacetate to become brightly fluorescent. The system is capable of measuring cytotoxicity over a 4-5 log dynamic range by quenching the residual fluorescence of dead and dying cells with eosin Y and quantifying the total fluorescence of viable cells using digital thresholding. Measured fluorescence is directly proportionate to the number of viable cells. A comparison of the total fluorescence of a drug-treated cell population to the fluorescence of a similar number of untreated cells yields a survival fraction. In brief, 2000 to 10,000 cells/well (depending on size and growth rates) are replicate plated into 60 wells of a 96-well tissue culture plate in 0.1 mL of whole medium and allowed to attach overnight. Drug(s) are then added in 0.05 mL of whole medium to the final concentrations indicated. Drugs (fenretinide, and various chain length L-threo-sphinganines) were tested both as single agents and in a 3:1 ratio of fenretinide:sphinganine. C18-L-threo-sphinganine, or “safingol,” was also tested and results shown for reference. There are 12 wells treated per drug concentration. Twelve wells receive drug vehicle-only to the appropriate final concentration and serve as controls for the plate. Cells are incubated for 96 hours at 37° C. in ambient air with 5% CO2. Fluorescein diacetate is then added to each well in 0.05 mL media to a final concentration of 8 microgram/mL. Cells are incubated for a further 15 minutes at 37° C. and 0.03 mL of 0.5% eosin Y is added to each well. Total fluorescence of viable cells is then measured by digital imaging microscopy. Results were graphed as the ratio of the fluoresecence of drug-treated wells to non-drug treated control wells (i.e., Survival Fraction). All tests were performed at least twice. Representative results are shown.
(§4) The Combination Index (CI) is a term to describe mathematical modeling of the pharmacologic effects on cytotoxicity (cell death) of two drugs in combination based. Cytotoxic “synergy” is defined as a cell death affect which is greater than would be expected from a simple product of the single agent cytotoxicities alone (i.e. an “additive” effect). By Chou-Talalay analysis, a CI<0.9 on a Fraction Affected (“Fa”, i.e. fraction of cells killed) indicates synergy, with smaller numbers indicating greater synergy; a CI of 0.9-1.1 signifies an additive or near-additive effect; and a CI>1.1 means the drug combination is antagonistic.
Fenretinide and L-threo-sphinganines tested in human lung adenocarcinoma (lung cancer) cell line, NCI-H-1792.

[4] = test system: MCF-7 breast adenocarcinoma cell line; assay: DIMSCAN cytotoxicity, fenretinide + L-threo-sphinganines 3:1 (Example B14); details: 96 h
Procedure: as §3, §4
(§5) Fenretinide and L-threo-sphinganines tested in human breast adenocarcinoma (breast cancer) cell lines, MCF-7 and MDA-MB-231.

[5] = test system: MDA-MB-231 breast adenocarcinoma cell line; assay: as above; details: MDA-MB-231, 20% O2, 96 h
Procedure: as §3, §4, §5

[6] = test system: COG-LL-317 Acute Lymphoblastic Leukemia (ALL) cancer cell line; assay: DIMSCAN cytotoxicity dose-response with fenretinide (Examples A, FIGS. 5, 11, 17); details: 5% oxygen, at one or more doses, +96 hrs
Procedure: as §1, with “microscopy. […]” for “microscopy.”

[7] = test system: CHLA-266 primitive neuroectodermal tumor (PNET) cell line; assay: DIMSCAN cytotoxicity, fenretinide + L-threo-sphinganines 3:1 (Example B9); details: 96 h
Procedure: as §3, §4
Fenretinide and L-threo-sphinganines tested in human primitive neuroectodermal tumor (PNET) (brain cancer) cell line, CHLA-266.

[8] = 2% oxygen, D-threo-PPMP fixed 10 uM, at most doses
[9] = 4-HPR 1.5 μM + L-threo-sphinganine 0.5 μM
[10] = 4-HPR 3 μM + L-threo-sphinganine 1 μM
[11] = 4-HPR 6 μM + L-threo-sphinganine 2 μM
[12] = 4-HPR 9 μM + L-threo-sphinganine 3 μM

| SMILES | CI (Combination Index) [3, 9] | Fa (fraction affected) [3, 9] | CI (Combination Index) [3, 10] | Fa (fraction affected) [3, 10] | CI (Combination Index) [3, 11] | Fa (fraction affected) [3, 11] | CI (Combination Index) [3, 12] | Fa (fraction affected) [3, 12] | CI (Combination Index) [4, 9] | Fa (fraction affected) [4, 9] | CI (Combination Index) [4, 10] | Fa (fraction affected) [4, 10] | CI (Combination Index) [7, 9] | Fa (fraction affected) [7, 9] | CI (Combination Index) [7, 10] | Fa (fraction affected) [7, 10] | CI (Combination Index) [7, 11] | Fa (fraction affected) [7, 11] | CI (Combination Index) [7, 12] | Fa (fraction affected) [7, 12] | other results |
| --- | --- | --- | --- | --- | --- | --- | --- | --- | --- | --- | --- | --- | --- | --- | --- | --- | --- | --- | --- | --- | --- |
| CCCCCCCCCCCCCCCCC[C@H](O)[C@@H](N)CO [C20, (2S,3S)-2-amino-1,3-icosanediol] | 0.9 | 0.287 | 0.7 | 0.852 | 0.7 | 0.972 | 0.5 | 0.998 | 0.8 | 0.287 | 0.4 | 0.852 | – | – | – | – | – | – | – | – | C.I. of D-threo-PPMP with fenretinide+L-threo-sphinganine (three drug combination) [1, 8]: < 1; C.I. (Combination Index) with fenretinide ([1]; oxygen not stated, at one or more doses): < 1; C.I. of D-threo-PPMP with fenretinide+L-threo-sphinganine (three drug combination) [2, 8]: < 1; C.I. (Combination Index) with fenretinide ([2]; at one or more doses): < 1; CI (Combination Index) [4, 11]: 0.3; Fa (fraction affected) [4, 11]: 0.971; CI (Combination Index) [4, 12]: 0.1; Fa (fraction affected) [4, 12]: 0.998; CI (Combination Index) [5, 9]: 2.0; Fa (fraction affected) [5, 9]: 0.011; CI (Combination Index) [5, 10]: 1.1; Fa (fraction affected) [5, 10]: 0.190; CI (Combination Index) [5, 11]: 1.3; Fa (fraction affected) [5, 11]: 0.583; CI (Combination Index) [5, 12]: 1.8; Fa (fraction affected) [5, 12]: 0.664; C.I. (Combination Index) with fenretinide [6]: < 1 |
| CCCCCCCCCCCC[C@H](O)[C@@H](N)CO [C15] | – | – | – | – | – | – | – | – | – | – | – | – | 0.5 | 0.657 | 1.0 | 0.701 | 1.2 | 0.906 | 0.4 | 0.999 | – |
| CCCCCCCCCCC[C@H](O)[C@@H](N)CO [C14] | – | – | – | – | – | – | – | – | – | – | – | – | 0.6 | 0.342 | 0.9 | 0.739 | 1.1 | 0.968 | 1.6 | 0.974 | – |
| CCCCCCCCCCCCCCC[C@H](O)[C@@H](N)CO [C18, (2S,3S)-2-amino-1,3-octadecanediol, reference compound] | 1.2 | 0.243 | 0.8 | 0.756 | 0.6 | 0.983 | 0.4 | 0.999 | 1.2 | 0.243 | 0.6 | 0.756 | 0.5 | 0.604 | 0.8 | 0.880 | 1.1 | 0.984 | 1.5 | 0.989 | CI (Combination Index) [4, 11]: 0.9; Fa (fraction affected) [4, 11]: 0.824; CI (Combination Index) [4, 12]: 0.6; Fa (fraction affected) [4, 12]: 0.961; CI (Combination Index) [5, 9]: 1.8; Fa (fraction affected) [5, 9]: 0.088; CI (Combination Index) [5, 10]: 1.8; Fa (fraction affected) [5, 10]: 0.207; CI (Combination Index) [5, 11]: 1.3; Fa (fraction affected) [5, 11]: 0.597; CI (Combination Index) [5, 12]: 0.7; Fa (fraction affected) [5, 12]: 0.922 |
| CCCCCCCCC[C@H](O)[C@@H](N)CO [C12] | 1.0 | 0.217 | 1.3 | 0.642 | 1.4 | 0.951 | 1.8 | 0.975 | 1.0 | 0.217 | 1.0 | 0.642 | 0.6 | 0.464 | 0.6 | 0.788 | 0.7 | 0.951 | 1.0 | 0.965 | CI (Combination Index) [4, 11]: 0.9; Fa (fraction affected) [4, 11]: 0.951; CI (Combination Index) [4, 12]: 1.2; Fa (fraction affected) [4, 12]: 0.975; CI (Combination Index) [5, 9]: 1.5; Fa (fraction affected) [5, 9]: 1E−07; CI (Combination Index) [5, 10]: 0.9; Fa (fraction affected) [5, 10]: 0.052; CI (Combination Index) [5, 11]: 1.6; Fa (fraction affected) [5, 11]: 0.272; CI (Combination Index) [5, 12]: 2.0; Fa (fraction affected) [5, 12]: 0.720 |
